Reference: patent US10072055B2, “Anti-inflammatory pharmaceutical products” (Resother Pharma APS, priority 2011, dated 2018)
“Also recorded” adds a separate entry of the source. Each block holds one substance with its values, some of them ahead of it. Ends that are not written are not given here.

How the values were obtained:
[1] = tested on: PMN interaction to an activated HUVEC monolayer; test: Flow chamber assay: PMN interaction with activated HUVEC monolayer (capture, rolling, adhesion); type: cell-based, human; conditions: for inhibition of PMN/neutrophil-endothelium interactions in flow chamber: concentration not given
From the text: FIGS. 2A-2C are a series of charts reporting data from flow chamber analysis to determine the inhibitory capability of five polypeptides of the present disclosure (Pep57 (SEQ ID NO:12); Pep59 (SEQ ID NO:13), Pep60 (SEQ ID NO:15), Pep83 (SEQ ID NO:16) and Pep84 (SEQ ID NO:14)) and Ac-ANAX1(2-26)-OH to reduce PMN interaction to an activated HUVEC monolayer.
FIGS. 4A-4C are a series of bar charts reporting percent inhibition provided by three polypeptides (UGP022 (SEQ ID NO:5); UGP025 (SEQ ID NO:7) and UGP026 (SEQ ID NO:8)) of the present disclosure, at different concentrations, on three different parameters (capture—FIG. 4A; rolling—FIG. 4B; and adhesion—FIG. 4C).
FIGS. 2A-2C are a series of charts reporting data from flow chamber analysis to determine the inhibitory capability of five polypeptides (Pep57 (SEQ ID NO: 12); Pep59 (SEQ ID NO: 13), Pep60 (SEQ ID NO: 15), Pep83 (SEQ ID NO: 16) and Pep84 (SEQ ID NO: 14)) of the present disclosure and Ac-ANAX1(2-26)-OH to reduce PMN interaction to an activated HUVEC monolayer. PMNs (5×10^6) were incubated with 10 μM of the various peptides for 10 min at 37° C. The PMNs were then flowed for 8 min at 1 dyne/cm^2, prior to quantifying the degree of PMN interaction with the HUVECs, both as PMN capture (FIG. 2A), adhesion (FIG. 2B) and rolling (FIG. 2C). […] Data are mean±SEM of 3 independent experiments (with distinct PMN and HUVEC preparations); *=P<0.05 vs. CT group, data analyzed using one way ANOVA.
FIGS. 4A-4C make a direct comparison of the activities of UGP022 (SEQ ID NO:5), UGP025 (SEQ ID NO: 7) and UGP026 (SEQ ID NO: 8) in the flow chamber assay, presenting the degree of inhibition on the three parameters under analysis (capture (FIG. 4A); rolling (FIG. 4B) and adhesion (FIG. 4C)).

PR3 = biological target: T1, PR3 (Homo sapiens, UniProt P24158); test: In vitro degradation/digest in the presence of PR3; type: in vitro ADME
T1 sequence (P24158 28-248 limits assumed): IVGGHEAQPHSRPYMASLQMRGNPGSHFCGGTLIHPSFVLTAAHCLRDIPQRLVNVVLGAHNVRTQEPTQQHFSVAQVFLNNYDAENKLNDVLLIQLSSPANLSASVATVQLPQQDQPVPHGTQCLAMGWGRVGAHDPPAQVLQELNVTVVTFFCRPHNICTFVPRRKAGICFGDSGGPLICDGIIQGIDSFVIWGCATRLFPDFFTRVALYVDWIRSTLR
Procedure: FIG. 8 is a logarithmic plot of the degradation over time of three polypeptides of the present disclosure, UGP022 (SEQ ID NO: 5), UGP025 (SEQ ID NO: 7) and UGP026 (SEQ ID NO: 8) in the presence of PR3, a protease implicated in the in vivo cleavage of Annexin 1.
In an attempt to improve the potency and increase the half-life of the UGP022 peptide of the present disclosure (SEQ ID NO: 5), a series of in vitro PR3 and FINE digests were conducted. […] This cleavage site is not believed to have been identified in the literature.
Degradation tests of three polypeptides of the present disclosure, UGP022 (SEQ ID NO:5), UGP025 (SEQ ID NO:7) and UGP026 (SEQ ID NO:8) in the presence of PR3, a protease implicated in the in vivo cleavage of Annexin 1, indicated better stability for polypeptides with Leucine substitution at position 24 relative to a polypeptide lacking that feature. Position 24 corresponds to position 25 of Annexin 1 because all tested polypeptides lack the methionine at position 1 of natural Annexin. A 47-residue polypeptide outperformed an otherwise identical 49-residue polypeptide. Similar results were obtained in degradation tests in the presence of FINE.
FIG. 8 is a logarithmic plot of the degradation over time of three polypeptides of the present disclosure, UGP022 (SEQ ID NO:5), UGP025 (SEQ ID NO:7) and UGP026 (SEQ ID NO:8) in the presence of PR3, a protease implicated in the in vivo cleavage of Annexin 1. […] Also, a 47-residue polypeptide amidated at its C-terminus outperformed an otherwise identical 49-residue polypeptide amidated at its C-terminus.

[2] = tested on: leukocyte recruitment into the inflamed airpouch; test: Mouse IL-1β air-pouch inflammation model (leukocyte migration); type: in vivo; conditions: mouse air-pouch
Procedure: FIG. 3A and FIG. 3B are a series of bar charts comparing the anti-inflammatory effects of three polypeptides (Pep57 (SEQ ID NO:12); Pep59 (SEQ ID NO:13) and Pep84 (SEQ ID NO:14)) of the present disclosure versus a vehicle-only control.
FIG. 3A and FIG. 3B are a series of bar charts comparing the anti-inflammatory effects of three polypeptides (Pep57 (SEQ ID NO: 12); Pep59 (SEQ ID NO: 13) and Pep84 (SEQ ID NO: 14)) of the present disclosure versus a vehicle-only control. Mice received 200 μl i.v. of saline+DMSO or a dose of 50 μg per animal of one of the three Ac2-26 derived peptides, immediately before the local injection of mouse IL-1β into 6-day-old airpouches. The extent of cell migration was determined 4 h later, following airpouch washing and staining of migrated cells with Gr1 marker. […] Data are mean±SEM of 5 mice per group. *P<0.05 vs. vehicle group (one way ANOVA).

FPR1 = biological target: T2, FPR1 (Homo sapiens, UniProt P21462); test: FPR1 activation (ERK phosphorylation and intracellular calcium fluxes); type: cell-based
T2 sequence (P21462 1-350): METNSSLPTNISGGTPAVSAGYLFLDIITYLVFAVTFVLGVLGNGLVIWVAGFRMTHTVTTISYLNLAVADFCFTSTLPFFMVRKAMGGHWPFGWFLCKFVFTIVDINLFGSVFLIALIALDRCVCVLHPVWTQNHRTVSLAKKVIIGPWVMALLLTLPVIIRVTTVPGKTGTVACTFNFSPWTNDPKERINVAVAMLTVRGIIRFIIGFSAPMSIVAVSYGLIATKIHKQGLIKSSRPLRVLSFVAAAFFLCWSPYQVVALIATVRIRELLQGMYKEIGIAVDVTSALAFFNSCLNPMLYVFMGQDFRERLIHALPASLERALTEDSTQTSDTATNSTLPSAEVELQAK

Substance: AMVSEFLKQAWFIENEEQEYVQTLKSSKGGPGSAVSPYPTFNPSSDV-NH2 [UGP025, Leu25-ANXA1(2-48)-NH2]
- activity in flow chamber assay at 100 fM ([1]; 100 fM): slightly more active at the 100 fM concentration when compared to the UGP022 peptide
- inhibition of PMN/neutrophil-endothelium interactions in flow chamber [1]: able to reduce the number of human PMNs interacting with an activated endothelium, acting specifically through the FPR2 receptor
- activity in flow chamber assay at the higher concentrations tested ([1]; higher concentrations): less active at the higher concentrations tested
- stability / resistance to PR3 degradation (PR3): more resistant to PR3 and FINE than the UGP022 peptide

- activation of FPR1 (FPR1): could activate both FPR1 and FPR2
Substance: AMVSEFLKQAWFIENEEQEYVQTVKSSKGGPGSAVSPYPTFNPSSDVAA-NH2 [UGP022, ANXA1(2-50)-NH2]
- inhibition of leukocyte infiltration/recruitment in air-pouch model [2]: more potent than either the UGP021 peptide; also recorded: the more potent at inhibiting leukocyte recruitment into the inflamed airpouch
- inhibition of PMN/neutrophil-endothelium interactions in flow chamber [1]: more potent than either the UGP021 peptide; also recorded: able to reduce the number of human PMNs interacting with an activated endothelium, acting specifically through the FPR2 receptor
- lowest concentration with significant anti-inflammatory effect on human PMN ([1]; human PMN): 1 pM
- cleavage sites by PR3 (PR3; in vitro digest): Ala 10 (Ala11 relative to Annexin 1) and Val 21 (Val22 relative to Annexin 1); also recorded: Val 24 (Val25 relative to Annexin 1)

Substance: AMVSEFLKQAWFIENEEQEYVQTLKSSKGGPGSAVSPYPTFNPSSDVAA-NH2 [UGP026, Leu25-ANXA1(2-50)-NH2]
- inhibition of PMN/neutrophil-endothelium interactions in flow chamber [1]: able to reduce the number of human PMNs interacting with an activated endothelium, acting specifically through the FPR2 receptor
- stability / resistance to PR3 degradation (PR3): more resistant to PR3 and FINE than the UGP022 peptide
